In brackets after ≈: the same amount, converted by molar mass.

The values that follow come from article PMC3700342 (Biochemical pharmacology, 2013).

One data set has as its system M. tuberculosis. Description: Microtiter broth dilution MIC, M. tuberculosis. The class given is cell-based. As to conditions: Mycobacterium tuberculosis, read-out: Mtb MIC.
The subject of the next data set is M. tuberculosis H37Rv. As to the kind of experiment: Microtiter broth dilution MIC, M. tuberculosis H37Rv. The class given is cell-based. As to conditions: Mycobacterium tuberculosis.
The test system of data set [1] is M. smegmatis and M. tuberculosis growth. As to the kind of experiment: MIC in the presence of 5 mM D-alanine in the growth medium. To be noted: data not shown. The class given is cell-based.
For another data set, the system named is M. smegmatis. Description: Microtiter broth dilution MIC, M. smegmatis. The class given is cell-based.
Data set [2] concerns the target T1, M. smegmatis alanine racemase (Mycolicibacterium smegmatis, UniProt P94967).
T1 sequence (P94967 1-389): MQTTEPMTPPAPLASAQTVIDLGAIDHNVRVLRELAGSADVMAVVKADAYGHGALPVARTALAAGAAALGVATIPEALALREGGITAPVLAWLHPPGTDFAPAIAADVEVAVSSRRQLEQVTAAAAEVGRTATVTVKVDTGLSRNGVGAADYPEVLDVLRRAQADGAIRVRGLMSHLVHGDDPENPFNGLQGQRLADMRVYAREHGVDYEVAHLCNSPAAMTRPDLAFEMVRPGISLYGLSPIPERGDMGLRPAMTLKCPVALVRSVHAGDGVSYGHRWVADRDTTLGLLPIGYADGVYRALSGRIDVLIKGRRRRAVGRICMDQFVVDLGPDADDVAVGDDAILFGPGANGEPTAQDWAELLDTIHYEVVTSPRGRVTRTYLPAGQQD
Description: Alanine racemase assay. The format is biochemical.

Data set [3] has as its target M. tuberculosis alanine racemase (Mycobacterium tuberculosis, UniProt P9WQA9). The format is biochemical.
The test system of the next data set is C[C@H](N)C(=O)O. Description: purified protein, by the assay type.
Substrate in the data set “Alanine racemase assay”: C[C@H](N)C(=O)O
As to the kind of experiment: Alanine racemase assay. The format is biochemical, M. smegmatis. As to conditions: other: L-alanine to D-alanine, recombinant enzyme.

Chain of M. tuberculosis alanine racemase (P9WQA9 whole entry): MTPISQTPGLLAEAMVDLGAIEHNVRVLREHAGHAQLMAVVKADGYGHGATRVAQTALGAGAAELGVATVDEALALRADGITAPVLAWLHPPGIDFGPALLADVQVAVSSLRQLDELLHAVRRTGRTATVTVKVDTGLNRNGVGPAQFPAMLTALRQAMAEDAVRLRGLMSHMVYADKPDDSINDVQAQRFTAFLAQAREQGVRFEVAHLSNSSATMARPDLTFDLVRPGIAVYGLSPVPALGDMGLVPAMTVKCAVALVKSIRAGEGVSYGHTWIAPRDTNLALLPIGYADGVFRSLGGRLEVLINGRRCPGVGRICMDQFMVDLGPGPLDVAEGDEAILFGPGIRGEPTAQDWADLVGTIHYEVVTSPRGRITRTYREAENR

With `N[C@@H]1CON=C1O` [CS, cycloserine], the MIC was 6.25 µg/mL (≈ 61.2 µM) in the data set on M. tuberculosis; 6.25 µg/mL (≈ 61.2 µM) in the data set with M. tuberculosis H37Rv; 25 µg/mL (≈ 245 µM) in the data set with M. smegmatis (Mycolicibacterium smegmatis, 48 h, read-out: MSM MIC). Also, the “increase in MIC” value in data set [1] came out at 3 fold. Further, the “MSM MIC” value in the data set with M. smegmatis (2 days, Mueller Hinton broth) stood at 25 µg/mL. This molecule came in with an IC50 in data set [2] greater than 100 µM.

As to `C[C@H](N)C(=O)O` [L-alanine], the Kcat was determined as 200 in data set [3] and 4300 in data set [2] (L-alanine to D-alanine, recombinant enzyme).

With “M. tuberculosis alanine racemase (Mycobacterium tuberculosis H37Rv)”, in the data set on C[C@H](N)C(=O)O, the Michaelis constant (Km) is on record as 4 mM and the maximum rate (Vmax) was 0.04 mM/min.

B1: M. smegmatis alanine racemase (Mycolicibacterium smegmatis) (protein)
chain: T1 sequence (P94967 1-389)
Regarding B1, in the data set “Alanine racemase assay”, the Km was 8.5 mM and the Vmax turned out to be 0.3 mM/min.
